Data as given in US8859527B2 (priority 2009, dated 2014).
Read-outs that look alike come from different tables or passages of the source.

Assays:
transplanted tumor S180 = system: transplanted tumor S180
Protocol: (§1) Experimental groups: three dosage groups were set up for DPT, 10, 5 and 2.5 mg/kg; the blank control group: cyclophosphamide (CTX) group, Etoposide group 20 mg/kg.
(§2) Administration route: injection via tail vein, it is administered in a dosage of 0.4 ml/20 g body weight. Administration period: the drug is administrated 24 hours after the inoculation, once every two days for four times in total.
(§3) Experimental methods: 60 ICR mice with standard weight of from 18 to 22 g are inoculated with S-180 or Heps solid tumor according to the test method for transplanted tumors, hypodermic inoculation with 0.2 ml is carried out in the armpit in the anterior limb of every mouse. The body weight is determined 24 hours after the inoculation and they are randomly divided into six groups: the blank control group, the CTX group (20 mg/kg), the Etoposide group (20 mg/kg), the DPT group (10, 5 and 2.5 mg/Kg). The drug is administrated 24 hours after the inoculation once for every two days for 4 times, and tumor-bearing mice are killed on the next after drug withdrawal and their body weights are measured, and the separated tumor mess is weighed, and all of the data are subjected to statistical analyses (t-test).

transplanted tumor Heps = system: transplanted tumor Heps
Protocol: as §1, §2, §3

[1] = system: K-562 (human erythremia cell line); assay: in vitro growth inhibition of tumor cells, K-562; type: cell-based; conditions: K562, 48 hours
Protocol: (§4) The tumor strains are A-549 (human lung adenocarcinoma cell line), BGC-823 (human gastric cancer cell line), C-6 (rat neurogliocytoma cell line), Hep G2 (human hepatic cancer cell line), HL-60 (human leukemia cell line), K-562 (human erythremia cell line) and Hela (human cervical cancer cell line). […] The drug was prepared as a stock solution of 10^−2 M by using physiological saline and diluted into the test solution in a gradient composed of five concentrations: C1 5×10^−5 M, C2 10^−5 M, C3 10^−6 M, C4 10^−7 M and C5 10^−8 M.
(§5) Experimental method: different tumor cells in exponential growth phase are inoculated in 96-well plates in a certain amount and the selected samples are added after the cells are cultured for 24 hours (suspension cells can be directly added after being inoculated), after the cells are incubated at 37° C. and 5% CO2 for another 48 hours, […] is added for further incubation for another 4 hours, and finally the samples are examined on a microplate reader after dissolving with DMSO.

[2] = system: C-6 (rat neurogliocytoma cell line); assay: in vitro growth inhibition of tumor cells, C-6; type: cell-based; conditions: C6, 48 hours
Protocol: as §4, §5

[3] = system: Hep G2 (human hepatic cancer cell line); assay: in vitro growth inhibition of tumor cells, Hep G2; type: cell-based; conditions: HepG2, 48 hours
Protocol: as §4, §5

[4] = system: BGC-823 (human gastric cancer cell line); assay: in vitro growth inhibition of tumor cells, BGC-823; type: cell-based; conditions: 48 hours
Protocol: as §4, §5

[5] = system: Hela (human cervical cancer cell line); assay: in vitro growth inhibition of tumor cells, Hela; type: cell-based; conditions: hela, 48 hours
Protocol: as §4, §5

[6] = system: HL-60 (human leukemia cell line); assay: in vitro growth inhibition of tumor cells, HL-60; type: cell-based; conditions: 48 hours
Protocol: as §4, §5

[7] = system: human non-small cell lung cancer H460 xenograft tumor; conditions: for Tumor volume / RTV / T/C / Gross tumor volume: 20 mg/kg iv
Protocol: (§6) The test article: the inclusion complex of DPT and SBE-β-CD, the content is 5.05%. Preparation Method: it is dissolved in a proper amount of saline after gentle shaking and the concentration is 0.4 mg/ml (which is the test solution for the 8 mg/kg group); other concentrations are prepared by diluting the stock solution of 0.4 mg/ml to the required concentration with physiological saline.
(§7) The control article: Etoposide injection produced by Qilu Pharmaceutical Co., Ltd. the batch number is 8060012EV, specification: 5 ml:0.1 g. Preparation Method: Etoposide injection is a kind of transparent sticky liquid and it is diluted with a proper amount of physiological saline and gently shaken and prepared as a homogeneous solution, and the concentration is 1 mg/ml.
(§8) Dosage setting: the high dosage group of DPT is 8 mg/kg, the medium dosage group of DPT is 4 mg/kg and the low dosage group of DPT is 2 mg/kg. The dosage for the positive control group of Etoposide injection is 20 mg/kg.
(§9) Experimental animals: source, germline and strain: BALB/c nude mice are provided by the Institute of Experimental Animals, Chinese Academy of Medical Sciences. Age: 35-40 days; body weight: 18-24 g; gender: male.
(§10) Transplanted tumor: the transplanted tumor for human nonsmall-cell lung cancer H460 in nude mice, and it is established by inoculating the human nonsmall-cell lung cancer H460 cell line hypodermically in the armpit of nude mice. 2×10^6 cells are inoculated.
(§11) Human non-small cell lung cancer H460 cell line in exponential phase of growth is prepared as a cell suspension of 2×10^7/ml under sterile conditions, 0.1 ml thereof is inoculated hypodermically in the right armpit of nude mice. The diameters of the transplanted tumors in the nude mice are measured by a sliding caliper, and the animals are randomly divided into different groups when the tumors grow up to the amount of 100 to 300 mm^3. The antitumor efficacy of the test article is dynamically observed by measuring the diameter of the tumor. The diameters of the tumor are determined once for every two days. The administration volume is 0.4 ml/20 g. The mice are killed 21 days after administration, and the tumors are surgically isolated and weighed. The calculation formula for tumor volume (TV) is as follows: TV=½×a×b^2 Wherein a and b represents for the length and the width, respectively.
(§12) The relative tumor volume (RTV) is calculated according to the measured results, and the calculation formula is as follows: RTV=Vt/V0. Wherein V0 is the tumor size measured during grouping and drug administration (d0), Vt is the tumor size in every measurements. The evaluation parameter for antitumor activity is the relative tumor growth rate T/C (%) which is calculated according to the formula as follows:
(§13) [formula] TRTV: the treatment group RTV; CRTV: the negative control group: RTV.

[8] = system: A-549 (human lung adenocarcinoma cell line); assay: in vitro growth inhibition of tumor cells, A-549; type: cell-based; conditions: A549, 48 hours
Protocol: as §4, §5

[9] = system: human non-small cell lung cancer H460 xenograft tumor; conditions: mouse, in vivo, iv, 20 mg/kg
Protocol: as §6, §7, §8, §9, §10, §11, §12, §13

[10] = S180 mice, 20 mg/kg iv, once every two days, four times
[11] = Heps mice, 20 mg/kg iv, once every two days, four times
[12] = H460 nude mice, 20 mg/kg iv three times a week, 9 times, 21 days

## O=P1(N(CCCl)CCCl)NCCCO1 (centres unmarked) [CTX, cyclophosphamide, reference compound]
Transplanted tumor S180; S180 mice, 20 mg/kg iv group
  Body weight Before administration: 19.80 ± 1.69 g
Transplanted tumor S180; [10]
  Body weight After administration: 23.00 ± 2.50 g
  Tumor weight: 0.98 ± 0.22 g
  Tumor-inhibition rate: 46.77%
Transplanted tumor Heps; Heps mice, 20 mg/kg iv group
  Body weight Before administration: 21.30 ± 1.49 g
Transplanted tumor Heps; [11]
  Body weight After administration: 22.50 ± 3.69 g
  Tumor inhibition rate: 66.94%
  Tumor weight: 0.65 ± 0.21 g

## COc1cc([C@@H]2c3cc4c(cc3[C@@H](O[C@@H]3O[C@@H]5CO[C@@H](C)O[C@H]5[C@H](O)[C@H]3O)[C@H]3COC(=O)[C@H]23)OCO4)cc(OC)c1O [Etoposide, reference compound]
[1]; 5 × 10^−5M
  Inhibition effects on in vitro growth: 67.32%
[1]; 10^−5M
  Inhibition effects on in vitro growth: 15.04%
[1]; 10^−6M
  Inhibition effects on in vitro growth: 4.45%
[1]; 10^−7M
  Inhibition effects on in vitro growth: 3.08%
[1]; 10^−8M
  Inhibition effects on in vitro growth: 2.38%
[2]; 5 × 10^−5M
  Inhibition effects on in vitro growth: 66.2%
[2]; 10^−5M
  Inhibition effects on in vitro growth: 59.96%
[2]; 10^−6M
  Inhibition effects on in vitro growth: 49.99%
[2]; 10^−7M
  Inhibition effects on in vitro growth: 16.67%
[2]; 10^−8M
  Inhibition effects on in vitro growth: 9.98%
[3]; 5 × 10^−5M
  Inhibition effects on in vitro growth: 97.14%
[3]; 10^−5M
  Inhibition effects on in vitro growth: 38.94%
[3]; 10^−6M
  Inhibition effects on in vitro growth: 8.71%
[3]; 10^−7M
  Inhibition effects on in vitro growth: 2.02%
[3]; 10^−8M
  Inhibition effects on in vitro growth: 1.71%
[4]; 5 × 10^−5M
  Inhibition effects on in vitro growth: 61.14%
[4]; 10^−5M
  Inhibition effects on in vitro growth: 10.55%
[4]; 10^−6M
  Inhibition effects on in vitro growth: 8.15%
[4]; 10^−7M
  Inhibition effects on in vitro growth: 7.67%
[4]; 10^−8M
  Inhibition effects on in vitro growth: 3.41%
Transplanted tumor S180; [10]
  Tumor weight: 1.05 ± 0.35 g
  Tumor-inhibition rate: 43.03%
Transplanted tumor S180; mouse, in vivo, iv, 20 mg/kg
  Body weight After administration: 23.30 ± 1.83 g
  Body weight Before administration: 19.30 ± 1.06 g
Transplanted tumor Heps; [11]
  Tumor inhibition rate: 59.31%
  Tumor weight: 0.80 ± 0.37 g
Transplanted tumor Heps; mouse, in vivo, iv, 20 mg/kg
  Body weight After administration: 22.40 ± 2.41 g
  Body weight Before administration: 21.10 ± 1.37 g
[5]; 5 × 10^−5M
  Inhibition effects on in vitro growth: 97.26%
[5]; 10^−5M
  Inhibition effects on in vitro growth: 24.71%
[5]; 10^−6M
  Inhibition effects on in vitro growth: 6.87%
[5]; 10^−7M
  Inhibition effects on in vitro growth: 5.63%
[5]; 10^−8M
  Inhibition effects on in vitro growth: 4.35%
[6]; 5 × 10^−5M
  Inhibition effects on in vitro growth: 94.85%
[6]; 10^−5M
  Inhibition effects on in vitro growth: 16.01%
[6]; 10^−6M
  Inhibition effects on in vitro growth: 8.45%
[6]; 10^−7M
  Inhibition effects on in vitro growth: 3.48%
[6]; 10^−8M
  Inhibition effects on in vitro growth: 1.91%
[7]; 0 d
  Tumor volume: 275 ± 130 mm^3
[7]; 2 d
  RTV: 1.306 ± 0.356
  T/C: 81.24%
  Tumor volume: 352 ± 169 mm^3
[7]; 4 d
  RTV: 2.012 ± 0.744
  T/C: 77.07%
  Tumor volume: 534 ± 277 mm^3
[7]; 6 d
  RTV: 2.048 ± 0.441
  T/C: 66.86%
  Tumor volume: 531 ± 186 mm^3
[7]; 8 d
  RTV: 2.054 ± 0.776
  T/C: 46.77%
  Tumor volume: 539 ± 255 mm^3
[7]; 10 d
  Gross tumor volume: 482 ± 216 mm^3
  RTV: 1.846 ± 0.688
  T/C: 36.90%
[7]; 12 d
  Gross tumor volume: 534 ± 254 mm^3
  RTV: 2.189 ± 1.212
  T/C: 29.47%
[7]; 14 d
  RTV: 2.898 ± 1.741
  T/C: 34.16%
  Tumor volume: 682 ± 311 mm^3
[7]; 16 d
  RTV: 3.115 ± 1.969
  T/C: 31.23%
  Tumor volume: 730 ± 384 mm^3
[7]; 18 d
  RTV: 3.876 ± 2.645
  T/C: 34.39%
  Tumor volume: 873 ± 407 mm^3
[7]; 21 d
  RTV: 3.706 ± 1.796
  T/C: 32.18%
  Tumor volume: 872 ± 305 mm^3
[7]; [12]
  Tumor weight: 1.27 ± 0.61 g
  Tumor-inhibition rate: 61.08%
[8]; 5 × 10^−5M
  Inhibition effects on in vitro growth: 68.67%
[8]; 10^−5M
  Inhibition effects on in vitro growth: 22.99%
[8]; 10^−6M
  Inhibition effects on in vitro growth: 5.18%
[8]; 10^−7M
  Inhibition effects on in vitro growth: 3.68%
[8]; 10^−8M
  Inhibition effects on in vitro growth: 2.3%
[9]
  Initial body weight: 22.67 ± 1.37 g
  toxicity: obvious toxicity
